Data: patent EP4745136A1, “PROTEIN TYROSINE PHOSPHATASE INHIBITOR, COMPOSITION COMPRISING SAME, AND MEDICAL USE THEREOF” (Shenzhen Zhongge Biological Technology Co., Ltd., priority 2023, dated 2025)

How the values were obtained:
[1] = target: T1, PTPN2 (Homo sapiens, UniProt P17706); test: PTPN2 inhibitory activity assay (HTRF); format: biochemical; conditions: PTPN2 final concentration 1 nM, substrate 1 µM, 40 min at room temperature
T1 construct: purchased Sino biological 10570-H20B
T1 sequence (P17706 1-415): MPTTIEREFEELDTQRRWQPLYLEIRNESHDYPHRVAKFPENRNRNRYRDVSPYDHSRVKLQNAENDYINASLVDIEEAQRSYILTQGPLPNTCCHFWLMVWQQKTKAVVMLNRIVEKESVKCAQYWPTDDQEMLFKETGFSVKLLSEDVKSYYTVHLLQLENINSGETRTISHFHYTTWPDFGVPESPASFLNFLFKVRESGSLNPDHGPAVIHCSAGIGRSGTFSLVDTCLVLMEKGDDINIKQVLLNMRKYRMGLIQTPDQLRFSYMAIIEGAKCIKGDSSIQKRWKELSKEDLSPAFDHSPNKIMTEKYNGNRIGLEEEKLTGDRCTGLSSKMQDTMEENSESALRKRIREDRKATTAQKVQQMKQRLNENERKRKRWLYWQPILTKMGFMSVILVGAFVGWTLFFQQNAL
Protocol: The present invention employs HTRF assay to characterize the inhibitory activity of compounds against PTPN2. The specific experimental process was as follows: compounds were transferred to a 384-well plate (PE# 6007290) using ECHO, and enzymatic reaction buffer (50 mM HEPES pH 7.5, 10 mM EDTA,0.01% Tween 20, 2 mM DTT) was prepared. PTPN2 (Sino biological #10570-H20B) was diluted in the reaction buffer, PTPN2 (final concentration 1 nM) was added and incubated with the compound at room temperature for 10 min, then the substrate (final concentration 1 µM) (biotin-(NH-CH2-CH2-O-CH2-CH2-O-CH2-CO)-T-R-D-I-(PY)-E-T-D-Y-Y-R-K-K-NH2) (Genscript) was added, and the reaction was terminated by adding a quencher after incubation at room temperature for 40 min. A final concentration of 10 nM Eu-anti-P (PY20) antibody (Cisbio#AD0066) and 15 nM APC-Streptavidin (Cisbio#AD0201) was added and incubated at room temperature for 1 hour. The fluorescence values of the reacted 384-well plates were read at 620 nm and 665 nm using Envision, and the IC50 value of inhibiting PTPN2 enzyme activity (PTPN 2 IC50) was fitted by nonlinear regression analysis of a four-parameter logistic equation.

[2] = tested on: B16F10 cells; test: B16F10 mIFNγ-induced cell growth inhibition assay (CTG); format: cell-based
Protocol: 40 µL (150 cells/well) of B16F10 cells (source ATCC Cat#CRL-6475) were inoculated into a 384-well plate, and the compounds were transferred to the 384-well plate containing cells using EHCO. One group of cells was added with 10 µL of complete medium (RPMI 1640 medium+10% FBS) without mIFNγ, one group was added with 10 µL of complete medium containing mIFNγ (source R&D Cat#485-MI/CF, final concentration 25 ng/ml), and different concentrations of compounds (DMSO content 0.5%) were added to the reaction system. The cell culture plates were incubated at 37 °C in 5% CO2 for 96 h. 25 µL of CTG was added, Envision was used for reading, the cell growth inhibition IC50 value (Cell IC50) was fitted by nonlinear regression analysis using a four-parameter logistic equation with DMSO/mIFNγ as the negative control and [drawing 152] as the positive control.

[3] = B16F10 cells with mIFNγ final concentration 25 ng/ml, 96 h, CTG readout
[4] = Mus musculus, B16-F10; B16F10 cells with mIFNγ final concentration 25 ng/ml, 96 h, CTG readout
[5] = Mus musculus, B16-F10, 96 h, B16F10 cells with mIFNγ final concentration 25 ng/ml, CTG readout

Row | SMILES | IC50 [1] | GI50 [2, 3] | GI50 [2, 4] | GI50 [2, 5]
1 | CC(C)CCN[C@H]1Cc2c(cc(O)c(N3CC(=O)NS3(=O)=O)c2F)C2CC21 (single isomer, unassigned) [Compound 2] | 100 to 500 nM | 10000 to 100000 nM |  | 
2 | O=C1CN(c2c(O)cc3c(c2F)C[C@H](NCCC2CCCCC2)C2CC32)S(=O)(=O)N1 (some centres unmarked) [Compound 11] | ≤ 20 nM |  | 10000 to 100000 nM | 
3 | CC(C)CCN[C@H]1Cc2c(cc(O)c(N3CC(=O)NS3(=O)=O)c2F)C2CC21 (single isomer, unassigned) [Compound 3] | ≤ 20 nM | ≤ 1000 nM |  | 
4 | CC(C)CCNCC1Cc2cc(O)c(N3CC(=O)NS3(=O)=O)c(F)c2/C1=C/F (single isomer, unassigned) [Compound 5] | 100 to 500 nM | 10000 to 100000 nM |  | 
5 | CC(C)CCNCC1Cc2cc(O)c(N3CC(=O)NS3(=O)=O)c(F)c2/C1=C\F (racemic) [Compound 7] | 20 to 100 nM |  |  | 10000 to 100000 nM
6 | CC(C)CCN[C@H]1Cc2c(cc(O)c(N3CC(=O)NS3(=O)=O)c2F)C2CC21 (some centres unmarked) [Compound 1] | ≤ 20 nM |  |  | 1000 to 10000 nM
7 | CC(C)CCNCC1Cc2cc(O)c(N3CC(=O)NS3(=O)=O)c(F)c2/C1=C/F (single isomer, unassigned) [Compound 6] | ≤ 20 nM | ≤ 1000 nM |  | 
8 | O=C1CN(c2c(O)cc3c(c2F)C[C@H](NCCCC(F)(F)F)C2CC32)S(=O)(=O)N1 (some centres unmarked) [Compound 8] | ≤ 20 nM |  |  | ≤ 1000 nM
9 | CC(C)(C)CCN[C@H]1Cc2c(cc(O)c(N3CC(=O)NS3(=O)=O)c2F)C2CC21 (some centres unmarked) [Compound 10] | ≤ 20 nM |  | 1000 to 10000 nM | 
10 | O=C1CN(c2c(O)cc3c(c2F)C[C@H](NCCC2CCCC2)C2CC32)S(=O)(=O)N1 (some centres unmarked) [Compound 17] | ≤ 20 nM |  | 1000 to 10000 nM | 
11 | O=C1CN(c2c(O)cc3c(c2F)C[C@H](NCC2CCCCO2)C2CC32)S(=O)(=O)N1 (some centres unmarked) [Compound 16] | 100 to 500 nM |  | 1000 to 10000 nM | 
12 | CC(C)(CCN[C@H]1Cc2c(cc(O)c(N3CC(=O)NS3(=O)=O)c2F)C2CC21)C(F)(F)F (some centres unmarked) [Compound 9] | ≤ 20 nM |  |  | 1000 to 10000 nM
13 | CC(C)CCNCC1Cc2cc(O)c(N3CC(=O)NS3(=O)=O)c(F)c2/C1=C/F (racemic) [Compound 4] | ≤ 20 nM |  |  | 1000 to 10000 nM
